14 molecules from patent US20150133373A1, “TRANSMUCOSAL DELIVERY OF ENGINEERED POLYPEPTIDES” (priority 2012, published 2015) can be followed below.

The test system of one series is NIH/Swiss mice. The series is described as follows: OGTT DOA (oral glucose tolerance test for duration of action) in NIH/Swiss mice. The series is classed as in vivo, mouse. The settings on record: for % Glucose Lowering Compared to Vehicle: Table 6, 25 nmol/kg IP at t=−1 day, blood glucose at 30 min after glucose gavage ([…]), 4 hr fasted NIH/Swiss female mice; for activity in OGTT DOA when dosed 24 hours before the glucose gavage (in words): dosed at t-24 hours.

Series [1] is described as follows: Stability in a pancreatin enzyme mixture. The class given is in vitro ADME. The settings on record: isolated enzyme pancreatin.
In another series the test system is Pancreatin. The series is described as follows: Stability in a pancreatin enzyme mixture. The settings on record: pH 6.8. The class given is in vitro ADME.
In series [2] the test system is CD3+CD4+ T cells (PBMC from 52 human Caucasian individuals).
Series [3] relates to IgG molecules present in normal human sera. The series is described as follows: Serum response analysis (ELISA, IgG binding to albumin binding polypeptides). How it is done:
Each serum sample was tested as a singlet.
On the technique in general: ELISA stands for enzyme-linked immunosorbent assay.

Series [4] is described as follows: Melting temperature (Tm) by circular dichroism. As to conditions: CD at 221 nm, 20° to 90° C., 1×PBS, 0.4-0.5 mg/ml. The class given is physicochemical. How it is done:
Purified albumin binding polypeptide variants were diluted in 1×PBS, to final concentrations between 0.4 and 0.5 mg/ml. Circular dichroism (CD) analysis was performed on a Jasco J-810 spectropolarimeter in a cell with an optical path-length of 1 mm. In the variable temperature measurements, the […] was measured at 221 nm from 20° to 90° C., with a temperature slope of 5° C./min.
The melting temperatures (Tm) of the different albumin binding polypeptide variants were calculated by determining the midpoint of the transition in the CD vs. temperature plot.
For orientation: Circular dichroism is widely used to follow secondary structure.

The subject of the next series is C57BL6 female mice. The series is described as follows: Kidney vacuolization (cytoplasmic vacuolation of renal cortical tubular epithelial cells). The series is classed as in vivo, mouse. As to conditions: Example 32; sc injection on days 0-6, kidneys on day 7. How it is done: With some drugs, such as some pegylated proteins, undesirable vacuoles can form in cytoplasm of epithelial cells lining the proximal convoluted tubules, which is an undesirable toxicity measure. […] C57BL6 female mice (n=2 cages, 3 mice/cage) were weighed daily 3 hours prior to lights out Immediately after weighing, on days 0-6 mice were injected subcutaneously with test compound. Mice were sacrificed on day 7 and kidneys submitted for histopathology. […] A positive control compound known to cause vacuole formation was scored as 3. The ABD polypeptide itself scored 0.
With some drugs, such as some pegylated proteins, undesirable vacuoles can form in cytoplasm of epithelial cells lining the proximal convoluted tubules, which is an undesirable toxicity measure. […] C57BL6 female mice (n=2 cages, 3 mice/cage) were weighed daily 3 hours prior to lights out Immediately after weighing, on days 0-6 mice were injected subcutaneously with test compound. Mice were sacrificed on day 7 and kidneys submitted for histopathology. […] A positive control compound known to cause vacuole formation was scored as 3.

Another series concerns the target T1, GLP-1 receptor (Rattus norvegicus, UniProt P32301).
T1 construct: cells that endogenously express GLP-1R; host or cells: rat thyroid carcinoma 6-23 (clone 6) cells
T1 sequence (P32301 22-463): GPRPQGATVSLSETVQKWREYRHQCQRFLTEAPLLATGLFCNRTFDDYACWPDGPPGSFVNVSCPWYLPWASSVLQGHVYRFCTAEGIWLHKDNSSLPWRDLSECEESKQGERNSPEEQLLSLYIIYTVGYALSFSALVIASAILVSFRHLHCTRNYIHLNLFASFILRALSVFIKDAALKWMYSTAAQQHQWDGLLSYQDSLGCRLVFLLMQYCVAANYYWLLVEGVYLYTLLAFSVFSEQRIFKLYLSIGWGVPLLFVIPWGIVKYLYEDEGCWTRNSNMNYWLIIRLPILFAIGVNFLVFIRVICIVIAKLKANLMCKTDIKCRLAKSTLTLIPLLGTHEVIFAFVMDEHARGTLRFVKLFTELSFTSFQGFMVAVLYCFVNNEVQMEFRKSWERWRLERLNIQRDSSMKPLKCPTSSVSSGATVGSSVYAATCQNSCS
Nature of the series: GLP-1 receptor functional activity (cAMP induction, HTRF cell-based assay, 6-23 (clone 6) cells).

Where two headings read alike, the source gives them in different places. No end group written: not given here. *: point of attachment. maleimido‑mono‑amide‑DOTA = O=C(O)CN1CCN(CC(=O)O)CCN(CC(=O)NCCN2C(=O)CC(*)C2=O)CCN(CC(=O)O)CC1

As usually defined, the fraction remaining is the share of the starting amount still present when the sample was taken.

As to “HGEGTFTSDLSKQLEEEAVRLFIEWLKQGGPSKEIISTGGGGSGGGSGGGSGGGSASLAEAKVLANRELDKYGVSDFYKRLINKAKTVEGVEALKLHILAALP [Cmpd 8]”, the “% Glucose Lowering Compared to Vehicle” value with NIH/Swiss mice is on record as −21%.
For `CCCCCCCCCCCCCCCC(=O)N[C@@H](CCC(=O)NCCCC[C@H](NC(=O)[C@H](C)NC(=O)[C@H](C)NC(=O)[C@H](CCC(N)=O)NC(=O)CNC(=O)[C@H](CCC(=O)O)NC(=O)[C@H](CC(C)C)NC(=O)[C@H](Cc1ccc(O)cc1)NC(=O)[C@H](CO)NC(=O)[C@H](CO)NC(=O)[C@@H](NC(=O)[C@H](CC(=O)O)NC(=O)[C@H](CO)NC(=O)[C@@H](NC(=O)[C@H](Cc1ccccc1)NC(=O)[C@@H](NC(=O)CNC(=O)[C@H](CCC(=O)O)NC(=O)[C@H](C)NC(=O)[C@@H](N)Cc1cnc[nH]1)[C@@H](C)O)[C@@H](C)O)C(C)C)C(=O)N[C@@H](CCC(=O)O)C(=O)N[C@@H](Cc1ccccc1)C(=O)N[C@H](C(=O)N[C@@H](C)C(=O)N[C@@H](Cc1c[nH]c2ccccc12)C(=O)N[C@@H](CC(C)C)C(=O)N[C@H](C(=O)N[C@@H](CCCNC(=N)N)C(=O)NCC(=O)N[C@@H](CCCNC(=N)N)C(=O)NCC(=O)O)C(C)C)[C@@H](C)CC)C(=O)O` [liraglutide, [N-epsilon-(gamma-Glu(N-alpha-hexadecanoyl))-Lys26,Arg34]-GLP-1-(7-37)-acid], in series [1] (pH 6.8), the fraction remaining at 0.5 h, 30 micromolar came out at 100% and the fraction remaining at 1 h, 30 micromolar turned out to be 100%. Further, the “susceptibility to pancreatic enzymes (in words)” value with Pancreatin is reported as “relatively resistant to pancreatic enzymes”.
Regarding `CC[C@H](C)[C@H](NC(=O)[C@H](Cc1ccccc1)NC(=O)[C@H](CCC(=O)O)NC(=O)[C@H](CCCCN)NC(=O)[C@H](C)NC(=O)[C@H](C)NC(=O)[C@H](CCC(N)=O)NC(=O)CNC(=O)[C@H](CCC(=O)O)NC(=O)[C@H](CC(C)C)NC(=O)[C@H](Cc1ccc(O)cc1)NC(=O)[C@H](CO)NC(=O)[C@H](CO)NC(=O)[C@@H](NC(=O)[C@H](CC(=O)O)NC(=O)[C@H](CO)NC(=O)[C@@H](NC(=O)[C@H](Cc1ccccc1)NC(=O)[C@@H](NC(=O)CNC(=O)[C@H](CCC(=O)O)NC(=O)[C@H](C)NC(=O)[C@@H](N)Cc1c[nH]cn1)[C@@H](C)O)[C@@H](C)O)C(C)C)C(=O)N[C@@H](C)C(=O)N[C@@H](Cc1c[nH]c2ccccc12)C(=O)N[C@@H](CC(C)C)C(=O)N[C@H](C(=O)N[C@@H](CCCCN)C(=O)NCC(=O)N[C@@H](CCCNC(=N)N)C(N)=O)C(C)C` [GLP-1 (7-36) (Human)], in series [1] (pancreatin enzyme mixture, 50 mM phosphate buffer pH 6.8, 37° C., 30 minutes, read-out: Percent Remaining at 30 minutes), the share remaining at 0.5 h, 30 micromolar was 39%. For the same molecule, the fraction remaining at 1 h, 30 micromolar in series [1] (pancreatin enzyme mixture, 50 mM phosphate buffer pH 6.8, 37° C., 60 minutes, read-out: Percent Remaining at 60 minutes) amounted to 24%.
As for “HGEGTFTSDLSKQMEEEAVRLFIEWLKNGGSLAEAKVLANRELDKYGVSDFYKRLINKAKTVEGVEALKLHILAALP [Cmpd 32]”, the “activity in OGTT DOA when dosed 24 hours before the glucose gavage (in words)” value in the series with NIH/Swiss mice is on record as “no glucose lowering”.
Still for that read-out and setting: as for “GSLAEAKEAANAELDSYGVSDFYKRLIDKAKTVEGVEALKDAILAALP [PEP07986]”, the entry is “inactive”.
With “HGEGTFTSDLSKQMEEEAVRLFIEWLKNTGGGGSASLAEAKVLANRELDKYGVSDFYKRLINKAKTVEGVEALKLHILAALP [Cmpd 10]”, the “% Glucose Lowering Compared to Vehicle” value with NIH/Swiss mice is −22%.
On to “HGEGTFTSDLSKQLEEEAVRLFIEWLKNGGPSSGAPPKSTGGGGSASGSLAEAKEAANAELDSYGVSDFYKRLIDKAKTVEGVEALKDAILAALP [Cmpd 2-6]”, for which the “Percent glucose lowering compared to vehicle” value in the series on NIH/Swiss mice (Table 17, 25 nmol/Kg, OGTT at 24 hours post drug administration, 30 minutes post gavage) is reported as −22%.
For “TT: tetanus toxoid (TT, Statens Serum Institut), positive control [reference compound]”, the “number of responding individuals as compared to buffer only” value in series [2] (52 donors) is 49.
Regarding `CC[C@H](C)[C@H](NC(=O)[C@H](C)NC(=O)[C@H](CC(=O)O)NC(=O)[C@H](CCCCN)NC(=O)[C@H](CC(C)C)NC(=O)[C@H](C)NC(=O)[C@H](CCC(=O)O)NC(=O)[C@@H](NC(=O)CNC(=O)[C@H](CCC(=O)O)NC(=O)[C@@H](NC(=O)[C@@H](NC(=O)[C@H](CCCCN)NC(=O)[C@H](C)NC(=O)[C@H](CCCCN)NC(=O)[C@H](CC(=O)O)NC(=O)[C@@H](NC(=O)[C@H](CC(C)C)NC(=O)[C@H](CCCNC(=N)N)NC(=O)[C@H](CCCCN)NC(=O)[C@H](Cc1ccc(O)cc1)NC(=O)[C@H](Cc1ccccc1)NC(=O)[C@H](CC(=O)O)NC(=O)[C@H](CO)NC(=O)[C@@H](NC(=O)CNC(=O)[C@H](Cc1ccc(O)cc1)NC(=O)[C@H](CSC1CC(=O)N(CCNC(=O)CN2CCN(CC(=O)O)CCN(CC(=O)O)CCN(CC(=O)O)CC2)C1=O)NC(=O)[C@H](CC(=O)O)NC(=O)[C@H](CC(C)C)NC(=O)[C@H](CCC(=O)O)NC(=O)[C@H](C)NC(=O)[C@H](CC(N)=O)NC(=O)[C@H](C)NC(=O)[C@H](C)NC(=O)[C@H](CCC(=O)O)NC(=O)[C@H](CCCCN)NC(=O)[C@H](C)NC(=O)[C@H](CO)NC(=O)[C@H](C)NC(=O)[C@H](CC(C)C)NC(=O)CN)C(C)C)[C@@H](C)CC)[C@@H](C)O)C(C)C)C(C)C)C(=O)N[C@@H](CC(C)C)C(=O)N[C@@H](C)C(=O)N[C@@H](C)C(=O)N[C@@H](CC(C)C)C(=O)N1CCC[C@H]1C(=O)O` (stereo partly drawn) [PEP07968], the “reactivity with IgG of human sera (in words)” value in series [3] is listed as “least reactivity”. Besides, in series [2], the “immunogenicity classification (in words)” value is “non-immunogenic” and the “number of responding individuals as compared to buffer only” value is listed as 1.
Consider “HGEGTFTSDLSKQLEEEAVRLFIEWLKQGGPSKEIISGGSLAEAKVLANRELDKYGVSDFYKRLINKAKTVEGVEALKLHILAALP [Cmpd 33]”, for which the “% Glucose Lowering Compared to Vehicle” value with NIH/Swiss mice was −19%.
With “PEP07975: DOTA-conjugated PEP07834, SEQ ID NO:460, via Cys14 with maleimido-mono-amide-DOTA; amidated at the C-terminus (ALASAKEAANAELDC(maleimido‑mono‑amide‑DOTA)YGVSDFYKRLIDKAKTVEGVEALKDAILAALP-NH2)”, in series [4], the Tm is 50 °C.
Take “HGEGTFTSDLSKQLEEEAVRLFIEWLKQGGPSKEIISTGGGGSASGSLAEAKEAANAELDSYGVSDFYKRLIDKAKTVEGVEALKDAILAALP [Cmpd 2-5]”: in the series with C57BL6 female mice, the “Severity score for cytoplasmic vacuolation of renal cortical tubular epithelial cells” value is listed as 0.
Consider “GSSLASAKEAANAELDSYGVSDFYKRLIDKAKTVEGVEALKDAILAALP [PEP07554]”, for which the Tm in series [4] amounted to 58 °C. In series [3], the “reactivity with IgG of human sera (in words)” value is “least reactivity”.

B1: HGEGTFTSDLSKQLEEEAVRLFIEWLKNTGGGGSASGSLAEAKEAANAELDSYGVSDFYKRLIDKAKTVEGVEALKDAILAALP (protein)
chain: HGEGTFTSDLSKQLEEEAVRLFIEWLKNTGGGGSASGSLAEAKEAANAELDSYGVSDFYKRLIDKAKTVEGVEALKDAILAALP
With B1, the “in vitro GLP-1 receptor functional activity (in words)” value with GLP-1 receptor was “active in vitro against the GLP-1 receptor”. For the same molecule, in the series with NIH/Swiss mice, the “activity in OGTT DOA when dosed 24 hours before the glucose gavage (in words)” value was “did not display 24 h duration”.
